Source: paper PMC10321576, “Cyclic peptides target the aromatic cage of a PHD-finger reader domain to modulate epigenetic protein function” (Chemical Science, 2023)
Peptide text beside a SMILES is read from it.

Target: T1, KDM7B PHD-finger (Homo sapiens, UniProt Q9UPP1)
T1 construct: KDM7B 1-66; His-tag (C); made in house
T1 sequence (Q9UPP1 1-66 isoform Q9UPP1-2): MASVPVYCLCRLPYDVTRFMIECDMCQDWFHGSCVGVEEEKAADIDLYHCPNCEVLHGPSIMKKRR
Experiment: Protein NMR 1H-15N HSQC chemical shift perturbation
Type: binding
Description: To better elucidate OC9 interactions at a single residue level, we conducted protein NMR studies using isotopically labelled PHD-finger.[48] Comparison of ^1H–^15N HSQC spectra for isotopically labelled apo and OC9-bound protein (Fig. 4a), independently assigned using ^13C,^15N 3D experiments (Fig. S21, NMR ESI ^†), identified 24 out of 66 protein residues with significant (standard deviation, s > 1) chemical shift perturbation (CSP, Δδ) of their backbone amides (Fig. 4b).
(a) ^1H–^15N HSQC of KDM7B PHD-finger in the apo (black) or bound forms with OC9 (purple, 1 : 1) or H3_1–21K4me3 (green, 3 : 1). (b) ^1H and ^15N chemical shift changes for apo vs. + OC9 were combined and weighted to give chemical shift perturbation (CSP) (Δδ) values. Standard deviation (σ) of Δδ are indicated (>1 pink, >2 purple). (c) TALOS+ predicts similar secondary structure elements in apo and OC9-bound solution protein complexes (light grey) to those found in PDB ID 3KV4 (dark grey). […] (e) Shielded ^1H-NMR signals centred around −0.5 ppm belonging to the OC9 V10 γ-methyl groups are observed in some OC9–PHD complexes, but not in apo protein, or complexes with OC9 V10A and OC9 V10DV. The V10^OC9 γ-methyl signals have NOE interactions (black semi-circles) with the W29^PHD indole, which itself is shielded upon binding of OC9 (indicated by ΔδH values).

`CC(C)[C@@H]1NC(=O)[C@H](CO)NC(=O)[C@@H]2CCCN2C(=O)[C@H](Cc2ccc(O)cc2)NC(=O)[C@@H]2CCCN2C(=O)[C@H](Cc2c[nH]cn2)NC(=O)[C@H]([C@@H](C)O)NC(=O)[C@H](C)NC(=O)[C@H](Cc2ccc(O)cc2)NC(=O)[C@H](Cc2ccc(O)cc2)NC(=O)CSC[C@@H](C(N)=O)NC(=O)[C@H]([C@@H](C)O)NC(=O)[C@H](CCCNC(=N)N)NC(=O)[C@H](Cc2ccccc2)NC1=O` [L3A] (HELM PEPTIDE1{[O=C(C[*:3])[*:2]].Y.Y.A.T.H.P.Y.P.S.V.F.R.T.C.[am]}$PEPTIDE1,PEPTIDE1,1:R3-15:R3$$$V2.0; C-terminus assumed) was tested. Which “CSP His49, OC9 vs OC9 L3A” value (residue His49 amide, PHD+OC9 vs PHD+OC9 L3A) did it give?
Its value is 0.0165.

And the “CSP His57” value (residue His57 amide 1H-15N, Free PHD vs PHD+peptide)?
Its value is 0.0486.

What about the “CSP His57, OC9 vs OC9 L3A” value (residue His57 amide, PHD+OC9 vs PHD+OC9 L3A) of the same compound?
Its value is 0.0065.

What about the “CSP Ile21” value (residue Ile21 amide 1H-15N, Free PHD vs PHD+peptide) of the same compound?
The value was 0.1438.

What about the “CSP Ile21, OC9 vs OC9 L3A” value (residue Ile21 amide, PHD+OC9 vs PHD+OC9 L3A) of the same compound?
Its value is 0.0277.

What about the “CSP Ile45” value (residue Ile45 amide 1H-15N, Free PHD vs PHD+peptide) of the same compound?
The value was 0.1010.

What about the “CSP Ile45, OC9 vs OC9 L3A” value (residue Ile45 amide, PHD+OC9 vs PHD+OC9 L3A) of the same compound?
The value was 0.0202.

What about the “CSP Ile61” value (residue Ile61 amide 1H-15N, Free PHD vs PHD+peptide) of the same compound?
Its value is 0.1437.

And the “CSP Ile61, OC9 vs OC9 L3A” value (residue Ile61 amide, PHD+OC9 vs PHD+OC9 L3A)?
The value was 0.0065.

And the “CSP Leu9” value (residue Leu9 amide 1H-15N, Free PHD vs PHD+peptide)?
The value was 0.1892.

What about the “CSP Leu9, OC9 vs OC9 L3A” value (residue Leu9 amide, PHD+OC9 vs PHD+OC9 L3A) of the same compound?
Its value is 0.0129.

What about the “CSP Leu12” value (residue Leu12 amide 1H-15N, Free PHD vs PHD+peptide) of the same compound?
The value was 0.1747.

What about the “CSP Leu12, OC9 vs OC9 L3A” value (residue Leu12 amide, PHD+OC9 vs PHD+OC9 L3A) of the same compound?
Its value is 0.0115.

And the “CSP Leu47” value (residue Leu47 amide 1H-15N, Free PHD vs PHD+peptide)?
The value was 0.1015.

What about the “CSP Leu47, OC9 vs OC9 L3A” value (residue Leu47 amide, PHD+OC9 vs PHD+OC9 L3A) of the same compound?
The value was 0.0102.

What about the “CSP Leu56” value (residue Leu56 amide 1H-15N, Free PHD vs PHD+peptide) of the same compound?
Its value is 0.0523.

And the “CSP Leu56, OC9 vs OC9 L3A” value (residue Leu56 amide, PHD+OC9 vs PHD+OC9 L3A)?
Its value is 0.0102.

What about the “CSP Lys41” value (residue Lys41 amide 1H-15N, Free PHD vs PHD+peptide) of the same compound?
The value was 0.1015.

What about the “CSP Lys41, OC9 vs OC9 L3A” value (residue Lys41 amide, PHD+OC9 vs PHD+OC9 L3A) of the same compound?
Its value is 0.0275.

And the “CSP Lys63” value (residue Lys63 amide 1H-15N, Free PHD vs PHD+peptide)?
Its value is 0.1309.

And the “CSP Lys63, OC9 vs OC9 L3A” value (residue Lys63 amide, PHD+OC9 vs PHD+OC9 L3A)?
The value was 0.0000.

And the “CSP Lys64” value (residue Lys64 amide 1H-15N, Free PHD vs PHD+peptide)?
Its value is 0.0250.

And the “CSP Lys64, OC9 vs OC9 L3A” value (residue Lys64 amide, PHD+OC9 vs PHD+OC9 L3A)?
The value was 0.0034.

And the “CSP Met20” value (residue Met20 amide 1H-15N, Free PHD vs PHD+peptide)?
The value was 0.3554.

What about the “CSP Met20, OC9 vs OC9 L3A” value (residue Met20 amide, PHD+OC9 vs PHD+OC9 L3A) of the same compound?
The value was 0.0065.

And the “CSP Met25” value (residue Met25 amide 1H-15N, Free PHD vs PHD+peptide)?
Its value is 0.7126.

And the “CSP Met25, OC9 vs OC9 L3A” value (residue Met25 amide, PHD+OC9 vs PHD+OC9 L3A)?
The value was 0.0388.

And the “CSP Met62” value (residue Met62 amide 1H-15N, Free PHD vs PHD+peptide)?
Its value is 0.0950.

What about the “CSP Met62, OC9 vs OC9 L3A” value (residue Met62 amide, PHD+OC9 vs PHD+OC9 L3A) of the same compound?
Its value is 0.0055.

And the “CSP Phe19” value (residue Phe19 amide 1H-15N, Free PHD vs PHD+peptide)?
Its value is 0.3115.

What about the “CSP Phe19, OC9 vs OC9 L3A” value (residue Phe19 amide, PHD+OC9 vs PHD+OC9 L3A) of the same compound?
Its value is 0.0174.

And the “CSP Phe30” value (residue Phe30 amide 1H-15N, Free PHD vs PHD+peptide)?
The value was 0.2578.

What about the “CSP Phe30, OC9 vs OC9 L3A” value (residue Phe30 amide, PHD+OC9 vs PHD+OC9 L3A) of the same compound?
The value was 0.0115.

What about the “CSP Ser3” value (residue Ser3 amide 1H-15N, Free PHD vs PHD+peptide) of the same compound?
Its value is 0.0045.

And the “CSP Ser3, OC9 vs OC9 L3A” value (residue Ser3 amide, PHD+OC9 vs PHD+OC9 L3A)?
The value was 0.0000.

What about the “CSP Ser33” value (residue Ser33 amide 1H-15N, Free PHD vs PHD+peptide) of the same compound?
The value was 0.1165.

What about the “CSP Ser33, OC9 vs OC9 L3A” value (residue Ser33 amide, PHD+OC9 vs PHD+OC9 L3A) of the same compound?
The value was 0.0065.

What about the “CSP Ser60” value (residue Ser60 amide 1H-15N, Free PHD vs PHD+peptide) of the same compound?
Its value is 0.0496.

And the “CSP Ser60, OC9 vs OC9 L3A” value (residue Ser60 amide, PHD+OC9 vs PHD+OC9 L3A)?
The value was 0.0034.

And the “CSP Thr17” value (residue Thr17 amide 1H-15N, Free PHD vs PHD+peptide)?
The value was 0.2647.

And the “CSP Thr17, OC9 vs OC9 L3A” value (residue Thr17 amide, PHD+OC9 vs PHD+OC9 L3A)?
Its value is 0.0068.

What about the “CSP Trp29” value (residue Trp29 amide 1H-15N, Free PHD vs PHD+peptide) of the same compound?
The value was 0.3312.

And the “CSP Trp29, OC9 vs OC9 L3A” value (residue Trp29 amide, PHD+OC9 vs PHD+OC9 L3A)?
The value was 0.0599.

What about the “CSP Tyr7” value (residue Tyr7 amide 1H-15N, Free PHD vs PHD+peptide) of the same compound?
The value was 0.2566.

What about the “CSP Tyr7, OC9 vs OC9 L3A” value (residue Tyr7 amide, PHD+OC9 vs PHD+OC9 L3A) of the same compound?
Its value is 0.0115.

What about the “CSP Tyr14” value (residue Tyr14 amide 1H-15N, Free PHD vs PHD+peptide) of the same compound?
Its value is 0.3127.

What about the “CSP Tyr14, OC9 vs OC9 L3A” value (residue Tyr14 amide, PHD+OC9 vs PHD+OC9 L3A) of the same compound?
The value was 0.0065.

And the “CSP Tyr48” value (residue Tyr48 amide 1H-15N, Free PHD vs PHD+peptide)?
The value was 0.8682.

What about the “CSP Tyr48, OC9 vs OC9 L3A” value (residue Tyr48 amide, PHD+OC9 vs PHD+OC9 L3A) of the same compound?
The value was 0.0765.

And the “CSP Val4” value (residue Val4 amide 1H-15N, Free PHD vs PHD+peptide)?
Its value is 0.0240.

What about the “CSP Val4, OC9 vs OC9 L3A” value (residue Val4 amide, PHD+OC9 vs PHD+OC9 L3A) of the same compound?
The value was 0.0068.

And the “CSP Val6” value (residue Val6 amide 1H-15N, Free PHD vs PHD+peptide)?
The value was 0.1640.

What about the “CSP Val6, OC9 vs OC9 L3A” value (residue Val6 amide, PHD+OC9 vs PHD+OC9 L3A) of the same compound?
Its value is 0.0055.

What about the “CSP Val16” value (residue Val16 amide 1H-15N, Free PHD vs PHD+peptide) of the same compound?
The value was 0.3687.

What about the “CSP Val16, OC9 vs OC9 L3A” value (residue Val16 amide, PHD+OC9 vs PHD+OC9 L3A) of the same compound?
Its value is 0.0230.

And the “CSP Val35” value (residue Val35 amide 1H-15N, Free PHD vs PHD+peptide)?
The value was 0.0569.

And the “CSP Val35, OC9 vs OC9 L3A” value (residue Val35 amide, PHD+OC9 vs PHD+OC9 L3A)?
Its value is 0.0102.

What about the “CSP Val37” value (residue Val37 amide 1H-15N, Free PHD vs PHD+peptide) of the same compound?
Its value is 0.0783.

What about the “CSP Val37, OC9 vs OC9 L3A” value (residue Val37 amide, PHD+OC9 vs PHD+OC9 L3A) of the same compound?
Its value is 0.0065.

What about the “CSP Val55” value (residue Val55 amide 1H-15N, Free PHD vs PHD+peptide) of the same compound?
The value was 0.0206.

What about the “CSP Val55, OC9 vs OC9 L3A” value (residue Val55 amide, PHD+OC9 vs PHD+OC9 L3A) of the same compound?
Its value is 0.0055.
